Results reported in US20160120863A1, “SLC2A TRANSPORTER INHIBITORS” (IOMET PHARMA LTD., priority 2013, published 2016).

Legend:
Format in all cases: cell-based
[1] = target: T1, human GLUT4 (Homo sapiens, UniProt P14672); test: [3H]-deoxy-D-glucose uptake assay, GLUT4; conditions: [3H]-deoxy-D-glucose uptake in HEK293 cells stably expressing human GLUT4
T1 construct: expressed in transfected cells
T1 sequence (P14672 1-509): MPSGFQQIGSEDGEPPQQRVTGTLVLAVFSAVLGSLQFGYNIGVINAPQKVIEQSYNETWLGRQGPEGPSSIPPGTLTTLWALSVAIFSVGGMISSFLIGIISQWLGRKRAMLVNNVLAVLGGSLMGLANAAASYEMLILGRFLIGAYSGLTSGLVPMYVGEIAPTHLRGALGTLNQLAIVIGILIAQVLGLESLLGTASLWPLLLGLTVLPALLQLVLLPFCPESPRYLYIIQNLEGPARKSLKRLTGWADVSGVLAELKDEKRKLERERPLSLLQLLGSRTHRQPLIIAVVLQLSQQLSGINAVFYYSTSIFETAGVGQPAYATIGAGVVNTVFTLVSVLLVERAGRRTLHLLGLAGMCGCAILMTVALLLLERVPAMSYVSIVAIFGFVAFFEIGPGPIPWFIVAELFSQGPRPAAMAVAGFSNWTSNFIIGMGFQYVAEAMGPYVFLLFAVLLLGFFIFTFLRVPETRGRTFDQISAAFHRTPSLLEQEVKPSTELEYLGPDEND
Protocol: (§1) HEK293 cells were engineered to stably express either human GLUT1, GLUT2, GLUt3 or GLUT4 by transfection with the pReceiver-Lv105 plasmid, containing either hGLUT1, hGLUT2, hGLUT3, or hGLUT4 gene constructs with lipofectamine 2000, hGLUT1- hGLUT2- hGLUT3- or hGLUT4-overexpressing polyclonal populations were isolated under purinomycin selective pressure (1 μg/ml) and maintained in Dulbecco's modified Eagle's medium supplemented with 1 μg/ml purinomycin+10% foetal bovine serum (FBS).
(§2) 60,000 cells per well were seeded overnight into poly-D-lysine coasted 96-well plates. Following media removal, cells were washed twice in warm glucose-free uptake buffer (25 mM HEPES/KOH pH 7.4, 125 mM NaCl, 4.8 mM KCl, 1.2 mM MgSO4, 1.2 mM CaCl2, 1.2 mM KH2PO4). 90 μl of test compounds were added in glucose-free uptake buffer and cells were incubated at 37° C. for 30 min. 10 μl of [3H]-deoxy-D-glucose (0.25 μCi, 125 μM final assay concentration) was then added per well in glucose-free uptake buffer and uptake was allowed to proceed at 37° C. for 30 min.
(§3) Cells were then washed twice with ice-cold PBS and 100 μl of Microscint-20 was added per well. Glucose uptake was quantified with a scintillation counter. The half maximal inhibitory concentration (IC50) (a measure of the effectiveness of the test compound in inhibiting glucose uptake) was determined.

[2] = target: T2, human GLUT2 (Homo sapiens, UniProt P11168); test: [3H]-deoxy-D-glucose uptake assay, GLUT2; conditions: [3H]-deoxy-D-glucose uptake in HEK293 cells stably expressing human GLUT2
T2 construct: expressed in transfected cells
T2 sequence (P11168 1-524): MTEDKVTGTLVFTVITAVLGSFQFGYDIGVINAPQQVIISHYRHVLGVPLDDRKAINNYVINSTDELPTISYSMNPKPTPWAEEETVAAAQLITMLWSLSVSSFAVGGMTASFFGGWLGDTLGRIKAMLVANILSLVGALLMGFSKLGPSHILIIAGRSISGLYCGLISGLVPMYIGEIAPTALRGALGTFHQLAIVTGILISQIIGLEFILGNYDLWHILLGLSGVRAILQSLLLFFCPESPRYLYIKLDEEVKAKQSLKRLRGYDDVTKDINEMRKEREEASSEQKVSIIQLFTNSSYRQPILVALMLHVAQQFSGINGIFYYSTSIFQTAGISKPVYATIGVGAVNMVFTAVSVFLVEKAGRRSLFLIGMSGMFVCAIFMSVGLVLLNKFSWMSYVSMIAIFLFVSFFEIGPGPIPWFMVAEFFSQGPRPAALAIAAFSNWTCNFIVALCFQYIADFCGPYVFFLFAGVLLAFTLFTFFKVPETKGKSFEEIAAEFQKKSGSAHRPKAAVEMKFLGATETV
Outline: (§4)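 HEK293 cells stably overexpressing human GLUT1 or GLUT2, seeded at 60,000 per well, treated with compounds in glucose-free uptake buffer for 30 min at 37 °C. [3H]-deoxy-D-glucose uptake quantified by scintillation counting after ice-cold PBS washes; IC50 determined.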

[3] = target: T3, human GLUT3 (Homo sapiens, UniProt P11169); test: [3H]-deoxy-D-glucose uptake assay, GLUT3; conditions: [3H]-deoxy-D-glucose uptake in HEK293 cells stably expressing human GLUT3
T3 construct: expressed in transfected cells
T3 sequence (P11169 1-496): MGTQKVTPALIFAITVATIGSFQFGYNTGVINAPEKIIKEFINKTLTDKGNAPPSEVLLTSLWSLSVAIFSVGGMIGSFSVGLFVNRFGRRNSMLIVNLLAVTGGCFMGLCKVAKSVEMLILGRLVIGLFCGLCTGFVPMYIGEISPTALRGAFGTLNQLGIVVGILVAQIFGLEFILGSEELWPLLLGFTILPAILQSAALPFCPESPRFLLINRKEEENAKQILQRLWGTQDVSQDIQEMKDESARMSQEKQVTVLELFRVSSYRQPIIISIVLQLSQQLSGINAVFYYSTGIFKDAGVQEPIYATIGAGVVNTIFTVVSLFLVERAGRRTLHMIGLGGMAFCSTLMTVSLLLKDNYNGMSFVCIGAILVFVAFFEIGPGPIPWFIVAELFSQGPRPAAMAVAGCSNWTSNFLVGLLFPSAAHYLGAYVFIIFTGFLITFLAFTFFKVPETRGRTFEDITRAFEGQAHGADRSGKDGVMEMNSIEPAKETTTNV
Protocol: as §1, §2, §3

[4] = target: T4, human GLUT1 (Homo sapiens, UniProt P11166); test: [3H]-deoxy-D-glucose uptake assay, GLUT1; conditions: [3H]-deoxy-D-glucose uptake in HEK293 cells stably expressing human GLUT1
T4 construct: expressed in transfected cells
T4 sequence (P11166 1-492): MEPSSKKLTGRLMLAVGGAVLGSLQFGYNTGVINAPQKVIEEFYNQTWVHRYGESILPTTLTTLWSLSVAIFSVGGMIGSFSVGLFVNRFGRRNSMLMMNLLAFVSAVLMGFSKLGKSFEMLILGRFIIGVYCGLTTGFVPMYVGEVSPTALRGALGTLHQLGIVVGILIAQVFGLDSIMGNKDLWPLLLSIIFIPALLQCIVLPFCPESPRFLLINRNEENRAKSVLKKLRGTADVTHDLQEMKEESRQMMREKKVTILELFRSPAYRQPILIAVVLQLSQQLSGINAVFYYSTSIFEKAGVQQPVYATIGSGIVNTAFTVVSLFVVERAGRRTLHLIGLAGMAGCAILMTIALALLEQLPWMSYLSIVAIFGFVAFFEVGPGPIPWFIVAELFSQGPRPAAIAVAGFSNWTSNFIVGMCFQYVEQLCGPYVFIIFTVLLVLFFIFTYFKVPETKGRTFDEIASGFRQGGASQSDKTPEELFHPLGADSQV
Outline: as §4

O=C(CO)N1CCN(Cc2c(-c3ccc(Cl)cc3Cl)nc3cnc(C4CC4)cn23)CC1 [Compound 321]
GLUT4 pIC50 [1]: +++ (pIC50 ≧ 6.00)
GLUT2 pIC50 [2]: +++ (pIC50 ≧ 6.00)
GLUT3 pIC50 [3]: +++ (pIC50 ≧ 6.00)
GLUT1 pIC50 [4]: +++ (pIC50 ≧ 6.00)

COCC(=O)N1CCN(Cc2c(-c3ccc(Cl)cc3Cl)nc3ccc(NS(C)(=O)=O)cn23)CC1 [Compound 336]
GLUT4 pIC50 [1]: +++ (pIC50 ≧ 6.00)
GLUT2 pIC50 [2]: ++ (pIC50 5.00-5.99)
GLUT3 pIC50 [3]: +++ (pIC50 ≧ 6.00)
GLUT1 pIC50 [4]: +++ (pIC50 ≧ 6.00)

CN(c1ccc2nc(-c3ccc(Cl)cc3)c(CN3CCOCC3)n2c1)S(C)(=O)=O [Compound 252]
GLUT4 pIC50 [1]: +++ (pIC50 ≧ 6.00)
GLUT2 pIC50 [2]: ++ (pIC50 5.00-5.99)
GLUT3 pIC50 [3]: +++ (pIC50 ≧ 6.00)
GLUT1 pIC50 [4]: +++ (pIC50 ≧ 6.00)

O=C(c1ccncc1)N1CCN(Cc2c(-c3ccc(Cl)cc3)nc3cnc(C4CC4)cn23)CC1 [Compound 265]
GLUT4 pIC50 [1]: +++ (pIC50 ≧ 6.00)
GLUT2 pIC50 [2]: +++ (pIC50 ≧ 6.00)
GLUT3 pIC50 [3]: +++ (pIC50 ≧ 6.00)
GLUT1 pIC50 [4]: +++ (pIC50 ≧ 6.00)

CC(=O)N1CCN(Cc2c(-c3ccc(Cl)cc3)nc3ccc(S(C)(=O)=O)cn23)CC1 [Compound 378]
GLUT4 pIC50 [1]: +++ (pIC50 ≧ 6.00)
GLUT2 pIC50 [2]: +− (pIC50 < 4.00)
GLUT3 pIC50 [3]: +++ (pIC50 ≧ 6.00)
GLUT1 pIC50 [4]: +++ (pIC50 ≧ 6.00)

CN(c1ccc2nc(-c3ccc(Cl)cc3)c(CN3CCN(C(=O)c4ccnnc4)CC3)n2c1)S(C)(=O)=O [Compound 310]
GLUT4 pIC50 [1]: +++ (pIC50 ≧ 6.00)
GLUT2 pIC50 [2]: ++ (pIC50 5.00-5.99)
GLUT3 pIC50 [3]: +++ (pIC50 ≧ 6.00)
GLUT1 pIC50 [4]: +++ (pIC50 ≧ 6.00)

CS(=O)(=O)Nc1ccc2nc(-c3ccc(Cl)cc3Cl)c(CN3CCN(C(=O)C4COC4)CC3)n2c1 [Compound 334]
GLUT4 pIC50 [1]: +++ (pIC50 ≧ 6.00)
GLUT2 pIC50 [2]: ++ (pIC50 5.00-5.99)
GLUT3 pIC50 [3]: +++ (pIC50 ≧ 6.00)
GLUT1 pIC50 [4]: +++ (pIC50 ≧ 6.00)

Clc1ccc(-c2nc3cnc(C4CC4)cn3c2CN2CCOCC2)cc1 [Compound 164]
GLUT4 pIC50 [1]: +++ (pIC50 ≧ 6.00)
GLUT2 pIC50 [2]: +++ (pIC50 ≧ 6.00)
GLUT3 pIC50 [3]: +++ (pIC50 ≧ 6.00)
GLUT1 pIC50 [4]: +++ (pIC50 ≧ 6.00)

O=C(C1CCOCC1)N1CCN(Cc2c(-c3ccc(Cl)cc3Cl)nc3cnc(C4CC4)cn23)CC1 [Compound 297]
GLUT4 pIC50 [1]: +++ (pIC50 ≧ 6.00)
GLUT2 pIC50 [2]: +++ (pIC50 ≧ 6.00)
GLUT3 pIC50 [3]: +++ (pIC50 ≧ 6.00)
GLUT1 pIC50 [4]: +++ (pIC50 ≧ 6.00)

O=C(c1cccc(F)c1)N1CCN(Cc2c(-c3ccc(Cl)cc3)nc3ccc(-c4ccccc4)cn23)CC1 [Compound 8]
GLUT4 pIC50 [1]: +++ (pIC50 ≧ 6.00)
GLUT2 pIC50 [2]: +++ (pIC50 ≧ 6.00)
GLUT3 pIC50 [3]: +++ (pIC50 ≧ 6.00)
GLUT1 pIC50 [4]: +++ (pIC50 ≧ 6.00)

CN(c1ccc2nc(-c3ccc(Cl)cc3Cl)c(CN3CCN(C(=O)C4COC4)CC3)n2c1)S(C)(=O)=O [Compound 335]
GLUT4 pIC50 [1]: +++ (pIC50 ≧ 6.00)
GLUT2 pIC50 [2]: +++ (pIC50 ≧ 6.00)
GLUT3 pIC50 [3]: +++ (pIC50 ≧ 6.00)
GLUT1 pIC50 [4]: +++ (pIC50 ≧ 6.00)

CN(c1ccc2nc(-c3ccc(Cl)cc3Cl)c(CN3CCn4ncnc4C3)n2c1)S(C)(=O)=O [Compound 346]
GLUT4 pIC50 [1]: +++ (pIC50 ≧ 6.00)
GLUT2 pIC50 [2]: ++ (pIC50 5.00-5.99)
GLUT3 pIC50 [3]: +++ (pIC50 ≧ 6.00)
GLUT1 pIC50 [4]: +++ (pIC50 ≧ 6.00)

CC(=O)N1CCN(Cc2c(-c3ccc(Cl)cc3Cl)nc3ccc(N(C)S(C)(=O)=O)cn23)CC1 [Compound 333]
GLUT4 pIC50 [1]: +++ (pIC50 ≧ 6.00)
GLUT2 pIC50 [2]: +++ (pIC50 ≧ 6.00)
GLUT3 pIC50 [3]: +++ (pIC50 ≧ 6.00)
GLUT1 pIC50 [4]: +++ (pIC50 ≧ 6.00)

CC(=O)N1CCN(Cc2c(-c3ccc(Cl)cc3Cl)nc3ccc(N4CCCS4(=O)=O)cn23)CC1 [Compound 339]
GLUT4 pIC50 [1]: +++ (pIC50 ≧ 6.00)
GLUT2 pIC50 [2]: +++ (pIC50 ≧ 6.00)
GLUT3 pIC50 [3]: +++ (pIC50 ≧ 6.00)
GLUT1 pIC50 [4]: +++ (pIC50 ≧ 6.00)

O=C(c1cscn1)N1CCN(Cc2c(-c3ccc(Cl)cc3Cl)nc3cnc(C4CC4)cn23)CC1 [Compound 306]
GLUT4 pIC50 [1]: +++ (pIC50 ≧ 6.00)
GLUT2 pIC50 [2]: +++ (pIC50 ≧ 6.00)
GLUT3 pIC50 [3]: +++ (pIC50 ≧ 6.00)
GLUT1 pIC50 [4]: +++ (pIC50 ≧ 6.00)

CN(c1ccc2nc(-c3ccc(Cl)cc3)c(CN3CCN(C(=O)C4COC4)CC3)n2c1)S(C)(=O)=O [Compound 309]
GLUT4 pIC50 [1]: +++ (pIC50 ≧ 6.00)
GLUT2 pIC50 [2]: ++ (pIC50 5.00-5.99)
GLUT3 pIC50 [3]: +++ (pIC50 ≧ 6.00)
GLUT1 pIC50 [4]: +++ (pIC50 ≧ 6.00)
